Reference: ChEMBL document CHEMBL3612050, “Dual inhibition of Staphylococcus aureus DNA gyrase and topoisomerase IV activity by phenylalanine-derived (Z)-5-arylmethylidene rhodanines” (Bioorg Med Chem, 2015)
Converted amounts (≈) assume the structure as drawn.

Key:
[1] = target: DNA gyrase (Staphylococcus aureus) (UniProt P0A0K8+P20831)
Description: Inhibition of Staphylococcus aureus DNA gyrase assessed as inhibition of negative supercoiling of pBR322 DNA after 30 mins by agarose gel electrophoresis

Staphylococcus aureus = test: Inhibition of Staphylococcus aureus Topoisomerase 4 assessed as inhibition of supercoiled pBR322 DNA relaxation after 30 mins by agarose gel electrophoresis

Chain of DNA gyrase (Staphylococcus aureus) (P0A0K8 2-644 limits assumed): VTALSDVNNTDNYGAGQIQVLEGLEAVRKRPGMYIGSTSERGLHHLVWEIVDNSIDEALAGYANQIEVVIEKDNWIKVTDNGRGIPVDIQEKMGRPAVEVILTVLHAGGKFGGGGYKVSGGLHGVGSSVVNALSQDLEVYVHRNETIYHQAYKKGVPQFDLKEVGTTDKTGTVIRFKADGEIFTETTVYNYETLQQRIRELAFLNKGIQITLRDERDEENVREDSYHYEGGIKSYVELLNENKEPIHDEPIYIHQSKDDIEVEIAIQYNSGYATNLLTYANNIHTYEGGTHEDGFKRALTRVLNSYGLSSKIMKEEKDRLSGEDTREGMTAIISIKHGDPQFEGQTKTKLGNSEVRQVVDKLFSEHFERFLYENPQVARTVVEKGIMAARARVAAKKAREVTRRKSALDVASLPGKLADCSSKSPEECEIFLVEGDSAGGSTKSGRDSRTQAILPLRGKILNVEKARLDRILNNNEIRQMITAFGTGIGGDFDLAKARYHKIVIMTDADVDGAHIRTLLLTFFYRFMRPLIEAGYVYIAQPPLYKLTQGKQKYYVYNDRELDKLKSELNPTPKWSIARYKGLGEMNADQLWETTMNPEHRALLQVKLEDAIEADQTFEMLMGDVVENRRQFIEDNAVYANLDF
Chain of DNA gyrase (Staphylococcus aureus) (P20831 whole entry partner): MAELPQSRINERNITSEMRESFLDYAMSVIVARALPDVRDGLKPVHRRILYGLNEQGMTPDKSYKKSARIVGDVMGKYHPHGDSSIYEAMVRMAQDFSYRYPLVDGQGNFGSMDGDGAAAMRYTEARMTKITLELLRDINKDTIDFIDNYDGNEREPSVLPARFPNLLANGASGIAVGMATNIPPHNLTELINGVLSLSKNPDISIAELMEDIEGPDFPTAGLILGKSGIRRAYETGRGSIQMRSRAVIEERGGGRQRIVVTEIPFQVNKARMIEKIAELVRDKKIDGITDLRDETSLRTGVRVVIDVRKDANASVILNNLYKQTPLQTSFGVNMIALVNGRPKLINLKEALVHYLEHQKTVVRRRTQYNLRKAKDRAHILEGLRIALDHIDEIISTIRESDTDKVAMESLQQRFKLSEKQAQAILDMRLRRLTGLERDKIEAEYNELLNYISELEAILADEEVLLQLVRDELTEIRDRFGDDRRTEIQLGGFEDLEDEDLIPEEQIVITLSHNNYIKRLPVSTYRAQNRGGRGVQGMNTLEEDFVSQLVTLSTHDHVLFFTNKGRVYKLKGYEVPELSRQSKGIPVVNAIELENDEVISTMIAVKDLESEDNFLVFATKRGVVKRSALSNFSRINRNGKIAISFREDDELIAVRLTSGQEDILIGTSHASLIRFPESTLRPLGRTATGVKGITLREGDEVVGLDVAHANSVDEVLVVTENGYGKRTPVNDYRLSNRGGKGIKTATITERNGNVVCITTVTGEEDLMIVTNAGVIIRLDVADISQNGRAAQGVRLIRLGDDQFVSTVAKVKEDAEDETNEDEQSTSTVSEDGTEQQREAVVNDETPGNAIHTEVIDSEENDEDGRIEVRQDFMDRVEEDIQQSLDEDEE

Structure (SMILES)	MIC [1]	MIC (Staphylococcus aureus)
O=C(O)[C@H](Cc1ccccc1)N1C(=O)/C(=C/c2cccc(-c3ccc(Cl)c(Cl)c3)c2)SC1=S	5 µM (≈ 2.57 µg/mL)	10 µM (≈ 5.14 µg/mL)
O=C(O)[C@H](Cc1ccccc1)N1C(=O)/C(=C/c2cccc(Cc3ccccc3)c2)SC1=S	25 µM (≈ 11.5 µg/mL)	17.5 µM (≈ 8.04 µg/mL)
O=C(O)[C@H](Cc1ccccc1)N1C(=O)/C(=C/c2cccc(OCc3ccccc3)c2)SC1=S	25 µM (≈ 11.9 µg/mL)	17.5 µM (≈ 8.32 µg/mL)
O=C(O)[C@H](Cc1ccccc1)N1C(=O)/C(=C/c2cccc(-c3ccccc3)c2)SC1=S	17.5 µM (≈ 7.8 µg/mL)	0.5 µM (≈ 0.223 µg/mL)
O=C(O)[C@H](Cc1ccccc1)N1C(=O)/C(=C/c2cccc(Oc3cccc(Cl)c3)c2)SC1=S	10 µM (≈ 4.96 µg/mL)	7.5 µM (≈ 3.72 µg/mL)
CO[C@@H]1[C@@H](OC(N)=O)[C@@H](O)[C@H](Oc2ccc3c(O)c(NC(=O)c4ccc(O)c(CC=C(C)C)c4)c(=O)oc3c2C)OC1(C)C	–	2.5 µM (≈ 1.53 µg/mL)
O=C(O)[C@H](Cc1ccccc1)N1C(=O)/C(=C/c2cccc(Cc3ccc(Cl)c(Cl)c3)c2)SC1=S	7.5 µM (≈ 3.96 µg/mL)	0.75 µM (≈ 0.396 µg/mL)
O=C(c1ccccc1)c1cccc(/C=C2\SC(=S)N([C@@H](Cc3ccccc3)C(=O)O)C2=O)c1	50 µM (≈ 23.7 µg/mL)	50 µM (≈ 23.7 µg/mL)
O=C(O)[C@H](Cc1ccccc1)N1C(=O)/C(=C/c2cccc(Oc3ccccc3)c2)SC1=S	50 µM (≈ 23.1 µg/mL)	10 µM (≈ 4.62 µg/mL)
O=C(O)[C@H](Cc1ccccc1)N1C(=O)/C(=C/c2cccc(Oc3ccc(Cl)c(Cl)c3)c2)SC1=S	5 µM (≈ 2.65 µg/mL)	2.5 µM (≈ 1.33 µg/mL)
O=C(O)[C@H](Cc1ccccc1)N1C(=O)/C(=C/c2cccc(OC/C=C\c3ccccc3)c2)SC1=S	10 µM (≈ 5.02 µg/mL)	5 µM (≈ 2.51 µg/mL)
O=C(O)[C@@H](Cc1ccccc1)N1C(=O)/C(=C/c2cccc(Oc3ccc(F)cc3)c2)SC1=S	17.5 µM (≈ 8.39 µg/mL)	5 µM (≈ 2.4 µg/mL)
